Experiments:
GABAa receptor = GABAa receptor binding assay (3H-RO15-1788 displacement); conditions: rat cortical tissue homogenate; radioligand 0.5 nM 3H-RO15-1788 [3H-Flumazenil]; 30 min at 4° C.
Protocol: The pharmaceutical utility of compounds of this invention are indicated by the following assay for GABAa receptor binding activity.
Assays are carried out as described in Thomas and Tallman (J. Bio. Chem. 156:9838-9842 , J. Neurosci. 3:433-440, 1983). Rat cortical tissue is dissected and homogenized in 25 volumes (w/v) of 0.05 M Tris HCl buffer (pH 7.4 at 4° C.). The tissue homogenate is centrifuged in the cold (4°) at 20,000×g for 20′. The supernatant is decanted and the pellet is rehomogenized in the same volume of buffer and again centrifuged at 20,000×g. The supernatant is decanted and the pellet is frozen at −20° C. overnight. The pellet is then thawed and rehomogenized in 25 volume (original wt/vol) of buffer and the procedure is carried out twice. The pellet is finally resuspended in 50 volumes (w/vol of 0.05 M Tris HCl buffer (pH 7.4 at […]).
Incubations contain […] of tissue homogenate, […] of radioligand 0.5 nM (^3H-RO15-1788 [^3H-Flumazenil] specific activity 80 Ci/mmol), drug or blocker and buffer to a total volume of […]. Incubations are carried for 30 min at 4° C. then are rapidly filtered through GFB filters to separate free and bound ligand. Filters are washed twice with fresh 0.05 M Tris HCl buffer (pH 7.4 at 4° C.) and counted in a liquid scintillation counter. […] diazepam is added to some tubes to determine nonspecific binding. Data are collected in triplicate determinations, averaged and % inhibition of total specific binding is calculated. Total Specific Binding=Total−Nonspecific. In some cases, the amounts of unlabeled drugs is varied and total displacement curves of binding are carried out.

Row | Ki (GABAa receptor) | melting point | Compound
1 | 90 nM | 130 to 132 °C | CNCc1cccc(NC(=O)c2c[nH]c3c2C(=O)CCC3)c1 [Compound 1, N-[3-(Methylaminomethyl)phenyl]-4-oxo-4,5,6,7-tetrahydro-1H-indole-3-carboxamide]
2 | 29 nM | – | COCCOc1ccc(NC(=O)c2c[nH]c3c2C(=O)CCC3)cc1 [Compound 2, N-[4-(Methoxyethoxy)phenyl]-4-oxo-4,5,6,7-tetrahydro-1H-indole-3-carboxamide]
3 | 49 nM | 186 to 188 °C | CNCc1ccc(NC(=O)c2c[nH]c3c2C(=O)CCC3)c(F)c1 [Compound 3, N-[2-Fluoro-4-(methylaminomethyl)phenyl]-4-oxo-4,5,6,7-tetrahydro-1H-indole-3-carboxamide]
4 | 0.24 nM | 197 to 200 °C | CNCCc1ccc(NC(=O)c2c[nH]c3c2C(=O)CCC3)cc1 [Compound 4, N-[4-(2-Methylaminoethyl)phenyl]-4-oxo-4,5,6,7-tetrahydro-1H-indole-3-carboxamide]
5 | 9 nM | 171 to 173 °C | O=C(Nc1ccc(CNC2CC2)cc1)c1c[nH]c2c1C(=O)CCC2 [Compound 5, N-[4-(Cyclopropylaminomethyl)phenyl]-4-oxo-4,5,6,7-tetrahydro-1H-indole-3-carboxamide]
6 | 9 nM | > 200 °C (dec.) | NCc1ccc(NC(=O)c2c[nH]c3c2C(=O)CCC3)cc1 [Compound 6, N-[4-(Aminomethyl)phenyl]-4-oxo-4,5,6,7-tetrahydro-1H-indole-3-carboxamide]
7 | 3 nM | – | O=C(Nc1ccc(OCCO)nc1)c1c[nH]c2c1C(=O)CCC2 [Compound 14]
8 | – | 184 to 186 °C | O=C(Nc1ccc(CCN2CCCC2)cc1)c1c[nH]c2c1C(=O)CCC2 [Compound 59, N-[4-(2-Pyrrolidin-1-ylethyl)phenyl]-4-oxo-4,5,6,7-tetrahydro-1H-indole-3-carboxamide]
9 | – | 140 to 141 °C | CCNCCOc1ccc(NC(=O)c2c[nH]c3c2C(=O)CCC3)cc1 [Compound 62, N-[4-(2-Ethylaminoethoxy)phenyl]-4-oxo-4,5,6,7-tetrahydro-1H-indole-3-carboxamide]
10 | – | 130 to 133 °C | CCCNCCOc1ccc(NC(=O)c2c[nH]c3c2C(=O)CCC3)cc1 [Compound 64, N-[4-(2-n-Propylaminoethoxy)phenyl]-4-oxo-4,5,6,7-tetrahydro-1H-indole-3-carboxamide]
11 | – | 284 to 286 °C | CC(C)NCCOc1ccc(NC(=O)c2c[nH]c3c2C(=O)CCC3)cc1 [Compound 69, N-[4-(2-Isopropylaminoethoxy)phenyl]-4-oxo-4,5,6,7-tetrahydro-1H-indole-3-carboxamide]
12 | – | 247 to 250 °C | O=C(Nc1ccc(OCCNCC2CC2)cc1F)c1c[nH]c2c1C(=O)CCC2 [Compound 72, N-[2-Fluoro-4-(2-Cyclopropylmethylaminoethoxy)phenyl]-4-oxo-4,5,6,7-tetrahydro-1H-indole-3-carboxamide]
13 | – | 152 to 155 °C | CC(C)CNCCOc1ccc(NC(=O)c2c[nH]c3c2C(=O)CCC3)c(F)c1 [Compound 76, N-[2-Fluoro-4-(2-Isobutylaminoethoxy)phenyl]-4-oxo-4,5,6,7-tetrahydro-1H-indole-3-carboxamide]
14 | – | 147 to 149 °C | CC(C)CNCCOc1ccc(NC(=O)c2c[nH]c3c2C(=O)CCC3)cc1F [Compound 77, N-[3-Fluoro-4-(2-Isobutylaminoethoxy)phenyl]-4-oxo-4,5,6,7-tetrahydro-1H-indole-3-carboxamide]
15 | – | 290 to 292 °C | CC(C)(C)NCCOc1ccc(NC(=O)c2c[nH]c3c2C(=O)CCC3)cc1 [Compound 81, N-[4-(2-t-Butylaminoethoxy)phenyl]-4-oxo-4,5,6,7-tetrahydro-1H-indole-3-carboxamide]
16 | – | 144 to 149 °C | O=C(Nc1ccc(OCCNC2C3CC4CC(C3)CC2C4)cc1)c1c[nH]c2c1C(=O)CCC2 (stereo not drawn) [Compound 83, N-[4-(2-adamant-2-ylaminoethoxy)phenyl]-4-oxo-4,5,6,7-tetrahydro-1H-indole-3-carboxamide]
17 | – | 165 to 167 °C | O=C(Nc1ccc(OC[C@@H]2CCCN2)cc1)c1c[nH]c2c1C(=O)CCC2 [Compound 85, N-{4-[(S)-Pyrrolidin-2-ylmethoxy]phenyl}-4-oxo-4,5,6,7-tetrahydro-1H-indole-3-carboxamide]

Row | Ki (GABAa receptor) | melting point | Compound
18 | – | 201 °C | CN(C)CCOc1ccc(NC(=O)c2c[nH]c3c2C(=O)CCC3)cc1 [Compound 88, N-[4-(2-Dimethylaminoethoxy)phenyl]-4-oxo-4,5,6,7-tetrahydro-1H-indole-3-carboxamide]
19 | – | 203 °C | CN(C)CCOc1ccc(NC(=O)c2c[nH]c3c2C(=O)CCC3)cc1F [Compound 89, N-[3-Fluoro-4-(2-dimethylaminoethoxy)phenyl]-4-oxo-4,5,6,7-tetrahydro-1H-indole-3-carboxamide]
20 | – | 164 to 168 °C | O=C(Nc1ccc(OCCN2CCCC2)cc1)c1c[nH]c2c1C(=O)CCC2 [Compound 90, N-[4-(2-Pyrrolidin-1-ylethoxy)phenyl]-4-oxo-4,5,6,7-tetrahydro-1H-indole-3-carboxamide]
21 | – | 226 to 230 °C | O=C(Nc1ccc(OCCn2ccnc2)cc1)c1c[nH]c2c1C(=O)CCC2 [Compound 91, N-[4-(2-Imidaz-1-ylethoxy)phenyl]-4-oxo-4,5,6,7-tetrahydro-1H-indole-3-carboxamide]
22 | – | 281 to 285 °C | O=C(Nc1ccc(OCCC2CCCCN2)cc1)c1c[nH]c2c1C(=O)CCC2 (stereo not drawn) [Compound 94, N-[4-(2-Piperidin-2-ylethoxy)phenyl]-4-oxo-4,5,6,7-tetrahydro-1H-indole-3-carboxamide]
23 | – | 274 to 278 °C | CC(C)(C)NCCOc1ccncc1NC(=O)c1c[nH]c2c1C(=O)CCC2 [Compound 112, N-[4-(2-t-Butylaminoethoxy)pyrid-3-yl]-4-oxo-4,5,6,7-tetrahydro-1H-indole-3-carboxamide]
24 | – | 163 to 166 °C | CN(C)CCOc1ccncc1NC(=O)c1c[nH]c2c1C(=O)CCC2 [Compound 122, N-[4-(2-Dimethylaminoethoxy)pyrid-3-yl]-4-oxo-4,5,6,7-tetrahydro-1H-indole-3-carboxamide]
25 | – | 247 °C | CN(C)CCCOc1ccncc1NC(=O)c1c[nH]c2c1C(=O)CCC2 [Compound 123, N-[4-(3-Dimethylaminopropoxy)pyrid-3-yl]-4-oxo-4,5,6,7-tetrahydro-1H-indole-3-carboxamide]
26 | – | 148 to 150 °C | O=C(Nc1cnccc1OCCN1CCCC1)c1c[nH]c2c1C(=O)CCC2 [Compound 124, N-[4-(2-Pyrrolidin-1-ylethoxy)pyrid-3-yl]-4-oxo-4,5,6,7-tetrahydro-1H-indole-3-carboxamide]
27 | – | 209 to 211 °C | CN1CCC(COc2ccncc2NC(=O)c2c[nH]c3c2C(=O)CCC3)C1 (stereo not drawn) [Compound 131, N-{4-[(1-Methyl-pyrrolidin-3-yl)methoxy]pyrid-3-yl}-4-oxo-4,5,6,7-tetrahydro-1H-indole-3-carboxamide]
28 | – | 175 to 176 °C | O=C(Nc1cccc(OCCCNC23CC4CC(CC(C4)C2)C3)c1)c1c[nH]c2c1C(=O)CCCC2 [Compound 183, N-[3-(3-Adamant-1-ylaminopropoxy)phenyl]4-oxo-1,4,5,6,7,8-hexahydro-cyclohepta[b]pyrrole-3-carboxamide]
29 | – | 241 to 243 °C | O=C(Nc1cnccc1OCc1cccnc1)c1c[nH]c2c1C(=O)CCCC2 [Compound 194, N-[4-(Pyrid-3-ylmethoxy)pyrid-3-yl]-4-oxo-1,4,5,6,7,8-hexahydro-cyclohepta[b]pyrrole-3-carboxamide]
30 | – | 192 to 196 °C | CCOC(=O)COc1ccc(NC(=O)c2c[nH]c3c2C(=O)CCC3)cc1F [Compound 222, N-[3-Fluoro-4-(2-ethoxy-2-oxoethoxy)phenyl]-4-oxo-4,5,6,7-tetrahydro-1H-indole-3-carboxamide]
31 | – | 246 to 248 °C | O=C(O)COc1ccc(NC(=O)c2c[nH]c3c2C(=O)CCC3)cc1F [Compound 223, N-[3-Fluoro-4-(2-hydroxy-2-oxoethoxy)phenyl]-4-oxo-4,5,6,7-tetrahydro-1H-indole-3-carboxamide]
32 | – | 193 to 196 °C | CCN(CC)C(=O)COc1ccc(NC(=O)c2c[nH]c3c2C(=O)CCC3)cc1F [Compound 225, N-[3-Fluoro-4-(2-diethylamino-2-oxoethoxy)phenyl]-4-oxo-4,5,6,7-tetrahydro-1H-indole-3-carboxamide]
33 | – | 148 to 150 °C | CCCN(CCC)CCNC(=O)COc1ccc(NC(=O)c2c[nH]c3c2C(=O)CCC3)cc1 [Compound 228, N-[2-(dipropylamino)ethyl]-2-{4-[(4-oxo-(4,5,6,7-tetrahydroindol-3-yl))carbonylamino]phenoxy}acetamide]
34 | – | 110 °C | O=C(Nc1ccc(OCC(=O)N2CCOCC2)c(F)c1)c1c[nH]c2c1C(=O)CCC2 [Compound 232, N-[3-fluoro-4-(2-morpholin-4-yl-2-oxoethoxy)phenyl](4-oxo-(4,5,6,7-tetrahydroindol-3-yl))carboxamide]

Source: patent US6515140B2, “Fused pyrrolecarboxamides; a new class of GABA brain receptor ligands” (Neurogen Corporation, priority 1996, dated 2003)
